Common to all, as to type: cell-based
The target of assay [1] is T1, glucagon receptor (Homo sapiens, UniProt P47871).
T1 construct: expressed in transfected cells; host or cells: HEK293
The experiment in a line: cAMP synthesis functional assay (firefly luciferase reporter in HEK293 cells), glucagon receptor. Conditions: Table 1; relative to the native hormone of the indicated receptor.

Assay [2] has as its target T2, GIP receptor (Homo sapiens, UniProt P48546).
T2 construct: expressed in transfected cells; host or cells: HEK293
T2 sequence (P48546 22-466): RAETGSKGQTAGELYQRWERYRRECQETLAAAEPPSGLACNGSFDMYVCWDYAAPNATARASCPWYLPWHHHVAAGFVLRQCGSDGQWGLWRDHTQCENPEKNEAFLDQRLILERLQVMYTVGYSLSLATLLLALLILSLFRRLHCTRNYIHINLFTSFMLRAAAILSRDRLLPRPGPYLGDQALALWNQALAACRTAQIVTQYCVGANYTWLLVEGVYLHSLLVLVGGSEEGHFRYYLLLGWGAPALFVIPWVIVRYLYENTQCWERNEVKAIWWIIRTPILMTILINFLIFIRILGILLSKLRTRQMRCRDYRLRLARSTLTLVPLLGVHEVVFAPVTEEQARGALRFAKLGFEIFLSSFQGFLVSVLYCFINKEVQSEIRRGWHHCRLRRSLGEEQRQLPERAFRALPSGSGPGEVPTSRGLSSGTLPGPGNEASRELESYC
Kind of assay: cAMP synthesis functional assay (firefly luciferase reporter in HEK293 cells), GIP receptor. To be noted: Table 1; relative to the native hormone of the indicated receptor.

Assay [3] addresses T3, GLP-1 receptor (Homo sapiens, UniProt P43220).
T3 construct: expressed in transfected cells; host or cells: HEK293
Kind of assay: cAMP synthesis functional assay (firefly luciferase reporter in HEK293 cells), GLP-1 receptor. To be noted: Table 1; for GLP-1 Receptor relative activity: relative to the native hormone of the indicated receptor; for EC50: GLP-1 Receptor EC50, nM. On the technique in general: Reporter assays use an easily measured gene product as a stand-in for the process of interest.

The EC50 is the concentration at which the effect is half-maximal. The low end stands for a more potent agent, the high end for a less potent agent.

Where a SMILES comes first, the peptide text is derived from it. Bridges are numbered along the chain shown (N, C = ends).

T1 sequence (P47871 26-477): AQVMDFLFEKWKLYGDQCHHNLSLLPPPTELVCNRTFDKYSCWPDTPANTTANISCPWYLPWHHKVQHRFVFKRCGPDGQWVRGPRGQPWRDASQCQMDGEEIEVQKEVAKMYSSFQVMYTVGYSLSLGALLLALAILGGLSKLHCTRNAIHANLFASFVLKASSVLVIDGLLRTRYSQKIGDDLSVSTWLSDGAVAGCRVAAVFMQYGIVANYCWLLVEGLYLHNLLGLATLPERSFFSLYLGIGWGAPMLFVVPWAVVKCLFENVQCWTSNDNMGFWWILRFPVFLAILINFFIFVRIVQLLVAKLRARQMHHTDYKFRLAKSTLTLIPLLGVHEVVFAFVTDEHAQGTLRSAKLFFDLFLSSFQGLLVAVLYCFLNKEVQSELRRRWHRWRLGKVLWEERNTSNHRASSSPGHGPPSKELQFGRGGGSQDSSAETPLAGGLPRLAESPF
T3 sequence (P43220 24-463, species assumed): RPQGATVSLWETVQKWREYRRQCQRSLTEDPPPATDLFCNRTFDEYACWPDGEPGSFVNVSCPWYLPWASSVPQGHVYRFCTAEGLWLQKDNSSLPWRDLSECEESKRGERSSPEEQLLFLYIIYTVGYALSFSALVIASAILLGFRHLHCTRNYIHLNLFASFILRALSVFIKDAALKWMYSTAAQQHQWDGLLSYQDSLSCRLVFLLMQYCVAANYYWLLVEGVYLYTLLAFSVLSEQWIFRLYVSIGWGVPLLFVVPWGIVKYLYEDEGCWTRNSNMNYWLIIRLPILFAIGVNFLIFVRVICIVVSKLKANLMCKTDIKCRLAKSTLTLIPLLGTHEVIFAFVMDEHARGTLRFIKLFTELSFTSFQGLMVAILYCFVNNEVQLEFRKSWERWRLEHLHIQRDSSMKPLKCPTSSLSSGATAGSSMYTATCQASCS

In the case of `CC[C@H](C)[C@H](NC(=O)[C@H](Cc1ccccc1)NC(=O)[C@H](CCC(=O)O)NC(=O)[C@@H]1CCCCNC(=O)CC[C@H](NC(=O)[C@H](CC(=O)O)NC(=O)[C@H](CC(C)C)NC(=O)[C@H](Cc2ccc(O)cc2)NC(=O)[C@H](CCCCN)NC(=O)[C@H](CO)NC(=O)[C@H](Cc2ccc(O)cc2)NC(=O)[C@H](CC(=O)O)NC(=O)[C@H](CO)NC(=O)[C@@H](NC(=O)[C@H](Cc2ccccc2)NC(=O)[C@@H](NC(=O)CNC(=O)[C@H](CCC(N)=O)NC(=O)[C@H](CO)NC(=O)[C@@H](N)Cc2ccc(O)cc2)[C@@H](C)O)[C@@H](C)O)C(=O)N[C@@H](CCC(N)=O)C(=O)N[C@@H](C)C(=O)N[C@@H](C)C(=O)N1)C(=O)N[C@@H](C)C(=O)N[C@@H](Cc1c[nH]c2ccccc12)C(=O)N[C@@H](CC(C)C)C(=O)N[C@@H](CC(C)C)C(=O)N[C@@H](C)C(=O)NCC(=O)NCC(=O)N1CCC[C@H]1C(=O)N[C@@H](CO)C(=O)N[C@@H](CO)C(=O)NCC(=O)N[C@@H](C)C(=O)N1CCC[C@H]1C(=O)N1CCC[C@H]1C(=O)N1CCC[C@H]1C(=O)N[C@@H](CO)C(N)=O` [mt-139] (H-YSQGTFTSDYSKYLDEQAAKEFIAWLLAGGPSSGAPPPS-NH2; lactam 16-20; N-terminus assumed), the “Glucagon Receptor relative activity” value in assay [1] is given as 561.11%. The “GIP Receptor relative activity” value in assay [2] was determined as 12.22%. Further, the “GLP-1 Receptor relative activity” value in assay [3] turned out to be 41.46%.

On to `CSCC[C@H](NC(=O)[C@H](Cc1ccc(O)cc1)NC(=O)[C@H](CCCCN)NC(=O)[C@H](CO)NC(=O)[C@H](Cc1ccc(O)cc1)NC(=O)[C@H](CC(=O)O)NC(=O)[C@H](CO)NC(=O)[C@@H](NC(=O)[C@H](Cc1ccccc1)NC(=O)[C@@H](NC(=O)CNC(=O)[C@H](CCC(N)=O)NC(=O)[C@H](CO)NC(=O)[C@@H](N)Cc1ccc(O)cc1)[C@@H](C)O)[C@@H](C)O)C(=O)N[C@@H](CC(=O)O)C(=O)N[C@H]1CCC(=O)NCCCC[C@@H](C(=O)N[C@@H](CCC(=O)O)C(=O)N[C@@H](Cc2ccccc2)C(=O)N[C@H](C(=O)N[C@@H](CC(N)=O)C(=O)N[C@@H](Cc2c[nH]c3ccccc23)C(=O)N[C@@H](CC(C)C)C(=O)N[C@@H](CC(C)C)C(=O)N[C@@H](C)C(=O)NCC(=O)NCC(=O)N2CCC[C@H]2C(=O)N[C@@H](CO)C(=O)N[C@@H](CO)C(=O)NCC(=O)N[C@@H](C)C(=O)N2CCC[C@H]2C(=O)N2CCC[C@H]2C(=O)N2CCC[C@H]2C(=O)N[C@@H](CO)C(N)=O)C(C)C)NC(=O)[C@H](C)NC(=O)[C@H](C)NC(=O)[C@H](CCC(N)=O)NC1=O` [mt-141] (H-YSQGTFTSDYSKYMDEQAAKEFVNWLLAGGPSSGAPPPS-NH2; lactam 16-20; N-terminus assumed), for which the “Glucagon Receptor relative activity” value in assay [1] came to 269.33%. In addition, the “GIP Receptor relative activity” value in assay [2] is on record as 10.04%. In assay [3], the EC50 was 0.16 nM and the “GLP-1 Receptor relative activity” value stood at 36.78%.

Regarding `CC(C)C[C@H](NC(=O)[C@H](CC(C)C)NC(=O)[C@H](Cc1c[nH]c2ccccc12)NC(=O)[C@H](CC(N)=O)NC(=O)[C@@H](NC(=O)[C@H](Cc1ccccc1)NC(=O)[C@H](CCC(=O)O)NC(=O)[C@@H]1CCCCNC(=O)CC[C@H](NC(=O)[C@H](CC(=O)O)NC(=O)[C@H](CC(C)C)NC(=O)[C@H](Cc2ccc(O)cc2)NC(=O)[C@H](CCCCN)NC(=O)[C@H](CO)NC(=O)[C@H](Cc2ccc(O)cc2)NC(=O)[C@H](CC(=O)O)NC(=O)[C@H](CO)NC(=O)[C@@H](NC(=O)[C@H](Cc2ccccc2)NC(=O)[C@@H](NC(=O)CNC(=O)[C@H](CCC(N)=O)NC(=O)[C@H](CO)NC(=O)[C@@H](N)Cc2ccc(O)cc2)[C@@H](C)O)[C@@H](C)O)C(=O)N[C@@H](CCCNC(=N)N)C(=O)N[C@@H](CCCNC(=N)N)C(=O)N[C@@H](C)C(=O)N1)C(C)C)C(=O)N[C@@H](C)C(=O)NCC(=O)NCC(=O)N1CCC[C@H]1C(=O)N[C@@H](CO)C(=O)N[C@@H](CO)C(=O)NCC(=O)N[C@@H](C)C(=O)N1CCC[C@H]1C(=O)N1CCC[C@H]1C(=O)N1CCC[C@H]1C(=O)N[C@@H](CO)C(N)=O` [mt-143] (H-YSQGTFTSDYSKYLDERRAKEFVNWLLAGGPSSGAPPPS-NH2; lactam 16-20; N-terminus assumed), the “Glucagon Receptor relative activity” value in assay [1] was determined as 496.51%. For the same compound, in assay [2], the “GIP Receptor relative activity” value is 1.82%. In addition, the “GLP-1 Receptor relative activity” value in assay [3] is 4.53%.

In the case of `CC[C@H](C)[C@H](NC(=O)[C@H](CO)NC(=O)[C@H](Cc1ccc(O)cc1)NC(=O)[C@H](CC(=O)O)NC(=O)[C@H](CO)NC(=O)[C@@H](NC(=O)[C@H](Cc1ccccc1)NC(=O)[C@@H](NC(=O)CNC(=O)[C@H](CCC(N)=O)NC(=O)[C@H](C)NC(=O)[C@@H](N)Cc1ccc(O)cc1)[C@@H](C)O)[C@@H](C)O)C(=O)N[C@@H](Cc1ccc(O)cc1)C(=O)N[C@@H](CCSC)C(=O)N[C@@H](CC(=O)O)C(=O)N[C@H]1CCC(=O)NCCCC[C@@H](C(=O)N[C@@H](CCC(=O)O)C(=O)N[C@@H](Cc2ccccc2)C(=O)N[C@H](C(=O)N[C@@H](CC(N)=O)C(=O)N[C@@H](Cc2c[nH]c3ccccc23)C(=O)N[C@@H](CC(C)C)C(=O)N[C@@H](CC(C)C)C(=O)N[C@@H](C)C(=O)NCC(=O)NCC(=O)N2CCC[C@H]2C(=O)N[C@@H](CO)C(=O)N[C@@H](CO)C(=O)NCC(=O)N[C@@H](C)C(=O)N2CCC[C@H]2C(=O)N2CCC[C@H]2C(=O)N2CCC[C@H]2C(=O)N[C@@H](CO)C(N)=O)C(C)C)NC(=O)[C@H](C)NC(=O)[C@H](C)NC(=O)[C@H](CCC(N)=O)NC1=O` [mt-144] (H-YAQGTFTSDYSIYMDEQAAKEFVNWLLAGGPSSGAPPPS-NH2; lactam 16-20; N-terminus assumed), in assay [1], the “Glucagon Receptor relative activity” value was 16.77%. Also, the “GIP Receptor relative activity” value in assay [2] is given as 18.54%. Moreover, in assay [3], a half-maximal response (EC50) required 0.036 nM and the “GLP-1 Receptor relative activity” value stood at 141.67%.

Regarding `CC[C@H](C)[C@H](NC(=O)[C@H](Cc1ccccc1)NC(=O)[C@@H](NC(=O)CNC(=O)[C@H](CCC(N)=O)NC(=O)[C@H](C)NC(=O)[C@@H](N)Cc1ccc(O)cc1)[C@@H](C)O)C(=O)N[C@@H](CO)C(=O)N[C@@H](CC(=O)O)C(=O)N[C@@H](Cc1ccc(O)cc1)C(=O)N[C@@H](CO)C(=O)N[C@@H](CCCCN)C(=O)N[C@@H](Cc1ccc(O)cc1)C(=O)N[C@@H](CC(C)C)C(=O)N[C@@H](CC(=O)O)C(=O)N[C@H]1CCC(=O)NCCCC[C@@H](C(=O)N[C@@H](CCC(=O)O)C(=O)N[C@@H](Cc2ccccc2)C(=O)N[C@H](C(=O)N[C@@H](CC(N)=O)C(=O)N[C@@H](Cc2c[nH]c3ccccc23)C(=O)N[C@@H](CC(C)C)C(=O)N[C@@H](CC(C)C)C(=O)N[C@@H](C)C(=O)NCC(=O)NCC(=O)N2CCC[C@H]2C(=O)N[C@@H](CO)C(=O)N[C@@H](CO)C(=O)NCC(=O)N[C@@H](C)C(=O)N2CCC[C@H]2C(=O)N2CCC[C@H]2C(=O)N2CCC[C@H]2C(=O)N[C@@H](CO)C(N)=O)C(C)C)NC(=O)[C@H](C)NC(=O)[C@H](C)NC(=O)[C@H](CCC(N)=O)NC1=O` [mt-145] (H-YAQGTFISDYSKYLDEQAAKEFVNWLLAGGPSSGAPPPS-NH2; lactam 16-20; N-terminus assumed), in assay [1], the “Glucagon Receptor relative activity” value is reported as 47.06%. Moreover, the “GIP Receptor relative activity” value in assay [2] is 4.79%. In addition, in assay [3], the “GLP-1 Receptor relative activity” value is given as 0.33%.

`CC[C@H](C)[C@H](NC(=O)[C@H](Cc1ccccc1)NC(=O)[C@@H](NC(=O)CNC(=O)[C@H](CCC(N)=O)NC(=O)[C@H](C)NC(=O)[C@@H](N)Cc1ccc(O)cc1)[C@@H](C)O)C(=O)N[C@@H](CO)C(=O)N[C@@H](CC(=O)O)C(=O)N[C@@H](Cc1ccc(O)cc1)C(=O)N[C@@H](CO)C(=O)N[C@@H](CCCCN)C(=O)N[C@@H](Cc1ccc(O)cc1)C(=O)N[C@@H](CC(C)C)C(=O)N[C@@H](CC(=O)O)C(=O)N[C@H]1CCC(=O)NCCCC[C@@H](C(=O)N[C@@H](CCC(=O)O)C(=O)N[C@@H](Cc2ccccc2)C(=O)N[C@H](C(=O)N[C@@H](CC(N)=O)C(=O)N[C@@H](Cc2c[nH]c3ccccc23)C(=O)N[C@@H](CC(C)C)C(=O)N[C@@H](CC(C)C)C(=O)N[C@@H](C)C(=O)NCC(=O)NCC(=O)N2CCC[C@H]2C(=O)N[C@@H](CO)C(=O)N[C@@H](CO)C(=O)NCC(=O)N[C@@H](C)C(=O)N2CCC[C@H]2C(=O)N2CCC[C@H]2C(=O)N2CCC[C@H]2C(=O)N[C@@H](CO)C(N)=O)C(C)C)NC(=O)[C@H](C)NC(=O)[C@H](C)NC(=O)[C@H](CCC(N)=O)NC1=O` [mt-146] (H-YAQGTFISDYSKYLDEQAAKEFVNWLLAGGPSSGAPPPS-NH2; lactam 16-20; N-terminus assumed): the “Glucagon Receptor relative activity” value in assay [1] stood at 480.00%. Moreover, the “GIP Receptor relative activity” value in assay [2] is 13.30%. The “GLP-1 Receptor relative activity” value in assay [3] is listed as 0.25%.

(Values after patent US9062124B2, “GIP-based mixed agonists for treatment of metabolic disorders and obesity” (priority 2008, dated 2015).)
